Target: ATP-binding cassette sub-family C member 2 (Homo sapiens, UniProt Q92887)
Assay: TP_TRANSPORTER: inhibition of ATPase activity in Sf9 cells (membrane vesicles)

Chain of ATP-binding cassette sub-family C member 2 (Q92887 whole entry): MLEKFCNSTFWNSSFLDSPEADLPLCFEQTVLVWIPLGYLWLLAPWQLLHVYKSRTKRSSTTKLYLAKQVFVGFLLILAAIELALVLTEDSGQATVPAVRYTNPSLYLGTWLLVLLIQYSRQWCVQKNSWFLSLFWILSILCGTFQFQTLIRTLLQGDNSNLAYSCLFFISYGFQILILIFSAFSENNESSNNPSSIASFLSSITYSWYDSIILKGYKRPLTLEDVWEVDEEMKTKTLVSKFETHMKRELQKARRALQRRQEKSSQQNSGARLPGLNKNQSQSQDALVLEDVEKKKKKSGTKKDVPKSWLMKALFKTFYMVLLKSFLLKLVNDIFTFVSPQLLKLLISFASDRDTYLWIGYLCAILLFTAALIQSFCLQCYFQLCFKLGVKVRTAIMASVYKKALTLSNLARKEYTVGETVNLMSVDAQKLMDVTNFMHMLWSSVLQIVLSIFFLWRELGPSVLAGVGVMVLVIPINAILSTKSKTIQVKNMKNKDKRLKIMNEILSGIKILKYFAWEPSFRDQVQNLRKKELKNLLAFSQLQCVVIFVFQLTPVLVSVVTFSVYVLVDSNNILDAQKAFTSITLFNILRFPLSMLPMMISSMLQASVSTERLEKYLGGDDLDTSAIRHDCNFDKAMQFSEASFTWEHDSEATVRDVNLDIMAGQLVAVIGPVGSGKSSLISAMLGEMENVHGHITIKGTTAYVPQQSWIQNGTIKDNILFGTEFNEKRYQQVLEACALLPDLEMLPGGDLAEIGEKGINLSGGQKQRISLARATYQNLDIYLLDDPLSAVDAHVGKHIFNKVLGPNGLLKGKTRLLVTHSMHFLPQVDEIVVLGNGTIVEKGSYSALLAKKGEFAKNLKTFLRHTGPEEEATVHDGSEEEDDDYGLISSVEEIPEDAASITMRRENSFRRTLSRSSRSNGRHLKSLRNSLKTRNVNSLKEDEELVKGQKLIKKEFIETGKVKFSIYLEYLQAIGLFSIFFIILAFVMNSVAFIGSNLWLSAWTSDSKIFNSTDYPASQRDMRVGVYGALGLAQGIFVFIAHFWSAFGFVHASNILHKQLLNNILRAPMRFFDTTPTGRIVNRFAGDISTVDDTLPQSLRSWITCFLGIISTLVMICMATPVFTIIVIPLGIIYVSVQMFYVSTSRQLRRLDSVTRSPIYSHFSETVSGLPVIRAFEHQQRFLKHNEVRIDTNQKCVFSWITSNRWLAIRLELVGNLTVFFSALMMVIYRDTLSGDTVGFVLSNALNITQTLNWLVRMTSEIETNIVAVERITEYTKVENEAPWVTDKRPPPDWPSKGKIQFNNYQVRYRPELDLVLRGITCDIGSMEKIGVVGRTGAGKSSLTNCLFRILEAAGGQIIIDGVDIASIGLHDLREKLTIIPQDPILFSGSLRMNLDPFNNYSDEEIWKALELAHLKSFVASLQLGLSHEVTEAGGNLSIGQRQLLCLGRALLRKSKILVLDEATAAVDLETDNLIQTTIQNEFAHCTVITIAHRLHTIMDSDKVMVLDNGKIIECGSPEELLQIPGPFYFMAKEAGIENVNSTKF

IC50: 18 µM
Structure (SMILES): CC[C@H](C)[C@H]1O[C@]2(CC[C@@H]1C)C[C@@H]1C[C@@H](C/C=C(\C)[C@@H](O[C@H]3C[C@H](OC)[C@@H](O[C@H]4C[C@H](OC)[C@@H](O)[C@H](C)O4)[C@H](C)O3)[C@@H](C)/C=C/C=C3\CO[C@@H]4[C@H](O)C(C)=C[C@@H](C(=O)O1)[C@]34O)O2 [ABAMECTIN]
